Structures are written as SMILES. Read-outs that look alike come from different tables or passages of the source.

Here are results for nine compounds from PMC4129175, “HPLC-Fingerprints and Antioxidant Constituents of Phyla nodiflora” (The Scientific World Journal, 2014).

Details of test [1]: method as in Lan et al. 2013 [15]. The following applies: positive control; ref Lan et al. 2013 [15]; cited from earlier work.
Details of test [2]: method as in Lan et al. 2013 [15]. The following applies: positive control; ref Lan et al. 2013 [15]; cited from earlier work. The source holds these as a separate data set.
Details of test [3]: method as in Lan et al. 2013 [15]. The following applies: positive control; ref Lan et al. 2013 [15]; cited from earlier work. The source holds these as a separate data set.
Test [4] is described as follows: Superoxide anion radical (O2∙−) scavenging assay (xanthine/xanthine oxidase, NBT). Type of test: biochemical. The conditions noted are these: concentration that scavenges 50% radicals; mean ± SD, n = 3. Here is the method:
(§1) The procedures of O2 ^∙− scavenging activity and mushroom tyrosinase inhibitory effect were performed as previous report. In the O2 ^∙− scavenging assay, xanthine (0.1 mM, 15 μl) in 50 mM phosphate buffer (pH 7.4), NBT (25 μM, 16 μl), EDTA (0.1 μM, 14 μl), and 100 μl of various concentrations of test compounds were mixed in the 96-well plates. Reactions were initiated by adding 0.5 U xanthine oxidase. After 30 min, the absorbance of each mixture was measured at 540 nm. In the mushroom tyrosinase inhibitory assay, L-tyrosine (2 mM, 80 μl) in 50 mM phosphate buffer (pH 6.5) and various concentrations of test compounds (100 μl) were added to 96-well plates. After 10 min incubation, 20 U mushroom tyrosinase was added to start the reaction. The absorbance of each mixture was measured at 490 nm after 30 min incubation. The O2 ^∙− scavenging capacity and the percentage inhibition of mushroom tyrosinase were calculated using the same formula as for the DPPH radical scavenging assay.

Test [5] is described as follows: ABTS cation radical (ABTS∙+) decolorization/scavenging assay. The following applies: concentration that scavenges 50% radicals; mean ± SD, n = 3. The protocol: The ABTS decolorization assay was performed as described, with slight modification. The ABTS cation radical (ABTS^∙+) was produced by reacting 7 mM stock solution of ABTS with 2.45 mM potassium persulfate (final concentration) and allowing the mixture to stand in the dark for 6–8 h at room temperature before use. The ABTS^∙+ solution was diluted to an absorbance of 0.7 ± 0.02 at 734 nm. Thirty microliters of samples of different concentrations were mixed with 170 μl of ABTS^∙+ working solution under a dark condition and shaken for 15 s. The absorbance was measured at 734 nm after 20 min. The scavenging capacity was calculated using the same formula as for the DPPH radical scavenging assay.

Test [6] is described as follows: DPPH radical (DPPH∙) scavenging assay. The following applies: concentration that scavenges 50% radicals; mean ± SD, n = 3. Here is the method:
In the DPPH radical (DPPH^∙) scavenging assay, fifty microliters of samples of various concentrations were mixed with 150 μl of DPPH^∙ solution (0.1 mM) dissolved in methanol. Each mixture was allowed to stand for 30 min and measured at 517 nm using a multiplate spectrophotometer (μQuant, Bio-Tek, USA). The scavenging ability was calculated using the following formula: (1) Scavenging ability (%) =(1−sample absorbance/control absorbance)×100%.
A general note: Loss of DPPH colour is used to gauge radical scavenging.

The next test deals with mushroom tyrosinase (Agaricus bisporus, UniProt C7FF04). Nature of the test: Lineweaver-Burk kinetic study of tyrosinase inhibition. Type of test: biochemical. The conditions noted are these: Lineweaver-Burk plot, various concentrations of tyrosine. The protocol: as §1
Chain of mushroom tyrosinase (C7FF04 1-392): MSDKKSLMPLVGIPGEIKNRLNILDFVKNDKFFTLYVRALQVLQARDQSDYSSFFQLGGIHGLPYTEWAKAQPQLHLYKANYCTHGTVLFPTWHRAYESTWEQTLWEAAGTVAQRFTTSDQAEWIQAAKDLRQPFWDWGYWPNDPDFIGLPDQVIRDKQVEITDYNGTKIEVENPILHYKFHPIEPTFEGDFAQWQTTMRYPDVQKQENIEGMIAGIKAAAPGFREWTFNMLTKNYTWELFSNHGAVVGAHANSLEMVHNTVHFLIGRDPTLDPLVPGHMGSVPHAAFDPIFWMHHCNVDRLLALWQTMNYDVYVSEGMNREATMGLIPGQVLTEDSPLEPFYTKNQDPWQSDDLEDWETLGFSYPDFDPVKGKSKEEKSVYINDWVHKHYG
Chain of mushroom tyrosinase (G1K3P4 entry or part of it, further chain): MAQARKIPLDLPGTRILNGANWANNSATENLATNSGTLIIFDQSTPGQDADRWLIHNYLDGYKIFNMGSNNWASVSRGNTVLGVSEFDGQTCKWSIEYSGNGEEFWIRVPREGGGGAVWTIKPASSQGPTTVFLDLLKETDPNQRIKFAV
(§2) This study used Lineweaver-Burk plots to determine the inhibitory mode of test samples [15]. The kinetic study was performed in the presence or absence of test samples with various concentrations of tyrosine or xanthine as the substrate.
Figure 2 Lineweaver-Burk plot of tyrosinase inhibition of (a) onopordin (4) and (b) eupafolin (7) with various concentrations of tyrosine. […]

The target in another test is T1, xanthine oxidase (XO) (Bos taurus, UniProt P80457).
T1 construct: purchased Sigma-Aldrich; host or cells: buttermilk
T1 sequence (P80457 whole entry): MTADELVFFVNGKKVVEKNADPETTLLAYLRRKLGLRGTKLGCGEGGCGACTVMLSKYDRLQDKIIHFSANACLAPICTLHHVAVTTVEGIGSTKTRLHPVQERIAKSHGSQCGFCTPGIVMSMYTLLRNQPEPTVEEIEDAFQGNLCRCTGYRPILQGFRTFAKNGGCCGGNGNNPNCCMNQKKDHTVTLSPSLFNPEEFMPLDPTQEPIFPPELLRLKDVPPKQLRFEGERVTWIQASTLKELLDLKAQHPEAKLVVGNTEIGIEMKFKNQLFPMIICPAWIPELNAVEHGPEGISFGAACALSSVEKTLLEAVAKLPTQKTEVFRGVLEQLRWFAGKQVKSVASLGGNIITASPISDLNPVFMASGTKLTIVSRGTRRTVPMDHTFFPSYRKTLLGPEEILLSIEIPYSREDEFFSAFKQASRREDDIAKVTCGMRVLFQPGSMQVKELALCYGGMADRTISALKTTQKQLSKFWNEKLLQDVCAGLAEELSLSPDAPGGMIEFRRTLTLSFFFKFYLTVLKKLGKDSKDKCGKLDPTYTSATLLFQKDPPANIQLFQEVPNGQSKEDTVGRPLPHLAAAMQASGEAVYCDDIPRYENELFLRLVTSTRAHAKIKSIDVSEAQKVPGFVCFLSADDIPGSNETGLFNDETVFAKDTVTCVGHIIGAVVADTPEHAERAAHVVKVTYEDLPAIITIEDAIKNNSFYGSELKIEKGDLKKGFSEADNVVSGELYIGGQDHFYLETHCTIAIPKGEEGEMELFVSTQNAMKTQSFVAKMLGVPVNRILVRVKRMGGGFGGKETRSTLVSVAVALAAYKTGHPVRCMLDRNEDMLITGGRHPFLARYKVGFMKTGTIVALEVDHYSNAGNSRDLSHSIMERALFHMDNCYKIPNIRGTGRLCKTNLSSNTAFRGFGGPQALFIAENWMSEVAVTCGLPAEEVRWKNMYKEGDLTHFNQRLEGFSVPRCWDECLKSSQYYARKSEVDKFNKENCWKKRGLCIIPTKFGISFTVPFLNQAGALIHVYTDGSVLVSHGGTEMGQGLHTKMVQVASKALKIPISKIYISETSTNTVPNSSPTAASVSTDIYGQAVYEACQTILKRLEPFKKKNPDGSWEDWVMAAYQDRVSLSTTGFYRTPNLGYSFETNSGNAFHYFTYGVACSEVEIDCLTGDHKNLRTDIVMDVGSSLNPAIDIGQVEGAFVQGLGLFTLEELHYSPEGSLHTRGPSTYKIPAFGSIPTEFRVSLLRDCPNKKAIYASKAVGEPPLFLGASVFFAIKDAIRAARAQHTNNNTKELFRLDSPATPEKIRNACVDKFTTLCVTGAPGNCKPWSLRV
Nature of the test: Lineweaver-Burk kinetic study of xanthine oxidase inhibition. The format is biochemical. The conditions noted are these: for Ki / Vmax (xanthine oxidase): xanthine as substrate. Here is the method: as §1, §2
Figure 1 Lineweaver-Burk plot of xanthine oxidase inhibition of eupafolin (7) with various concentrations of xanthine. (×) Without eupafolin, (▲) 5 μM of eupafolin, (●) 10 μM of eupafolin, and (○) 20 μM of eupafolin. Data are presented as mean ± SD of three independent experiments.

For the compound `O=c1cc(-c2ccc(O)cc2)oc2cc(O)cc(O)c12` [Apigenin], the “DPPH∙ SC50” value in test [1] was more than 300 µM. Besides, the “O2∙− SC50” value in test [2] was 81.3 ± 2.0 µM. In test [3], the “ABTS∙+ SC50” value was 159.6 ± 4.4 µM.
With `COc1cc(-c2cc(=O)c3c(O)c(O)c(O)cc3o2)ccc1O` [Compound 2, nodifloretin], the “O2∙− SC50” value in test [4] was 42.3 ± 1.5 µM. Also, in test [5], the “ABTS∙+ SC50” value worked out at 62.2 ± 2.5 µM. Besides, the “DPPH∙ SC50” value in test [6] is 198.2 ± 3.8 µM.
For the compound `COc1c(O)cc(O)c2c(=O)cc(-c3ccc(O)cc3)oc12` [Compound 3, 4′-hydroxywogonin], the “O2∙− SC50” value in test [4] is 59.9 ± 2.1 µM. Besides, the “ABTS∙+ SC50” value in test [5] was more than 300 µM. Further, the “DPPH∙ SC50” value in test [6] is more than 300 µM.
Consider `COc1c(O)cc(O)c2c(=O)cc(-c3ccc(O)c(O)c3)oc12` [Compound 4, onopordin], for which, in test [4], the “O2∙− SC50” value was found to be 23.5 ± 0.5 µM. In addition, on mushroom tyrosinase, the “Inhibitory mode on tyrosinase” value is “mixed-type inhibitor”. For the same compound, the “ABTS∙+ SC50” value in test [5] stood at 53.7 ± 3.9 µM. Further, the “DPPH∙ SC50” value in test [6] came to 24.7 ± 1.2 µM.
For `COc1cc2oc(-c3ccc(O)c(O)c3)cc(=O)c2c(O)c1OC` [Compound 5, cirsiliol], in test [4], the “O2∙− SC50” value was found to be 10.7 ± 1.3 µM. Moreover, the “ABTS∙+ SC50” value in test [5] was found to be 58.4 ± 2.7 µM. Besides, the “DPPH∙ SC50” value in test [6] came out at 21.8 ± 1.2 µM.
Take `COc1cc(-c2cc(=O)c3c(O)cc(O)c(O)c3o2)ccc1O` [Compound 6, 5,7,8,4′-tetrahydroxy-3′-methoxyflavone]: the “O2∙− SC50” value in test [4] came to 34.6 ± 2.4 µM. In addition, the “ABTS∙+ SC50” value in test [5] was more than 300 µM. The “DPPH∙ SC50” value in test [6] is more than 300 µM.
Consider `COc1c(O)cc2oc(-c3ccc(O)c(O)c3)cc(=O)c2c1O` [Compound 7, eupafolin], for which the “O2∙− SC50” value in test [4] came to 8.3 ± 0.4 µM. Besides, the “Inhibitory mode on tyrosinase” value at mushroom tyrosinase is reported as “competitive inhibitor”. The “ABTS∙+ SC50” value in test [5] turned out to be 30.5 ± 1.2 µM. In addition, the inhibition constant Ki was found to be 4.48 µM at xanthine oxidase (XO) (7 at 5 μM), 5.05 µM at xanthine oxidase (XO) (7 at 10 μM) and 8.93 µM at xanthine oxidase (XO) (7 at 20 μM). Further, the “Vmax (xanthine oxidase)” value is 3.6 × 10^−2 ΔO.D./min on xanthine oxidase (XO) (7 at 5 μM), 3.2 × 10^−2 ΔO.D./min at xanthine oxidase (XO) (7 at 10 μM) and 3.1 × 10^−2 ΔO.D./min on xanthine oxidase (XO) (7 at 20 μM). The “Inhibitory mode on xanthine oxidase” value on xanthine oxidase (XO) (Lineweaver-Burk plot, various concentrations of xanthine) is listed as “mixed-type inhibitor”. The “DPPH∙ SC50” value in test [6] amounted to 24.1 ± 0.4 µM.
Regarding `COc1c(O)cc2oc(-c3ccc(O)cc3)cc(=O)c2c1O` [Compound 8, hispidulin], the “ABTS∙+ SC50” value in test [5] was 55.3 ± 3.8 µM. Moreover, the “DPPH∙ SC50” value in test [6] was 57.5 ± 2.7 µM.
Consider `O=C1O[C@H]([C@@H](O)CO)C(O)=C1O` [Vit. C, L-Ascorbic acid, reference compound], for which the “O2∙− SC50” value in test [4] stood at 23.5 ± 1.7 µM. Besides, the “ABTS∙+ SC50” value in test [5] worked out at 49.9 ± 2.1 µM. Further, the “DPPH∙ SC50” value in test [6] stood at 64.6 ± 4.4 µM.

For orientation: Ki means the dissociation constant of the complex between target and ligand, obtained from inhibition or displacement. A high value points to weaker binding.
